Consider 18 molecules from ChEMBL document CHEMBL3217471, “Prenyltransferase Inhibitors: Treating Human Ailments from Cancer to Parasitic Infections” (Medchemcomm, 2013).

In experiment [1] the target is Geranylgeranyl transferase type I (Homo sapiens, UniProt P49354+P53609). In words: Inhibition of human GGTase1 in human Burkitt lymphoma (Daudi) cell supernatant using [3H]geranylgeranyl.
Experiment [2] addresses T1, Protein farnesyltransferase (Homo sapiens, UniProt P49354+P49356). In words: Inhibition of human recombinant FTase using [3H]farnesyldiphosphate. It counts as protein-complex assay.
A short description of experiment [3]: Inhibition of rat RabGGTase using [3H]GGPP by scintillation counting.
The species named for a further experiment is Homo sapiens. In words: Selectivity ratio of IC50 for human GGTase 1 in human Burkitt lymphoma (Daudi) cell supernatant to IC50 for human recombinant FTase.
The nature of experiment [4]: Inhibition of human RabGGTase using [3H]GGPP by scintillation counting.
Experiment [5] addresses T1, Protein farnesyltransferase. In words: Binding affinity to FTase (unknown origin).

In the case of `CC(C)C[C@H](NC(=O)c1ccc(NC[C@@H](N)CS)cc1-c1ccccc1)C(=O)O`, the IC50 came to 5 nM in experiment [1] and 25 nM in experiment [2].

For `O=C(NCCCn1ccnc1)[C@H]1CN([C@@H]2c3ccc(Cl)cc3CCc3cc(Br)cnc32)CCN1C(=O)NC1CCCCC1`, the IC50 in experiment [2] worked out at 0.4 nM.

For `O=C(O)C(Cl)(Cc1cccnc1)P(=O)(O)O` (configuration not stated), the IC50 in experiment [3] was determined as 16400 nM.

As to `N#Cc1ccc2c(c1)CN(S(=O)(=O)c1cccs1)[C@@H](Cc1ccccc1)CN2Cc1ncc[nH]1`, the IC50 is over 1000 nM in experiment [1] and 1.35 nM in experiment [2].

`Cc1ccccc1-c1cc(NCc2c[nH]cn2)ccc1C(=O)N[C@@H](CC(C)C)C(=O)O`: the IC50 in experiment [1] was 21 nM; in experiment [2] it was 5600 nM. In addition, the Ratio IC50 in the experiment listed under Homo sapiens was over 250.

Consider `COc1ccc(S(=O)(=O)N2Cc3cc(C#N)ccc3N(Cc3cncn3C)C[C@H]2Cc2ccccc2)cc1`, for which the results for the IC50 in experiment [1], in experiment [3] and in experiment [2] were over 99500 nM, 724 nM and 6 nM, respectively.

`Cn1cncc1CN(Cc1cccc(C#N)c1)c1ccc(C#N)c(-c2cccc3ccccc23)c1`: in experiment [2], the concentration for half-maximal inhibition (IC50) amounted to 0.39 nM.

As for `O=C(O)C(O)(Cc1cccnc1)P(=O)(O)O` (configuration not stated), the IC50 in experiment [4] came out at 600 µM; in experiment [3] it was 24100 nM.

Molecule `NC(=O)N1CCC(CC(=O)N2CCC([C@H]3c4ncc(Br)cc4CCc4cc(Cl)cc(Br)c43)CC2)CC1` [LONAFARNIB] returned an IC50 in experiment [1] of over 50000 nM.

The molecule `O=C(O)C(O)(Cc1cnc2ccccn12)P(=O)(O)O` (single isomer, unassigned; (+)) [(2-HYDROXY-3-IMIDAZO[1,2-A]PYRIDIN-3-YL-2-PHOSPHONOPROPIONIC ACID (ENANTIONMERS)] had an IC50 in experiment [3] of 1300 nM.

`N#Cc1ccc2cc1Oc1ccc3c(c1)[C@@H](CCC3)N1CC[C@@H](NCc3cncn3C2)C1=O` [(1R,5R)-30-OXO-19-OXA-2,6,10,12-TETRAAZAHEXACYCLO[18.6.2.1^{2,5}.1^{14,18}.0^{8,12}.0^{23,27}]TRIACONTA-8,10,14(29),15,17,20(28),21,23(27)-OCTAENE-17-CARBONITRILE (STRUCTURAL MIX)]: in experiment [2], the IC50 amounted to 0.02 nM.

`Cn1cncc1[C@@](N)(c1ccc(Cl)cc1)c1ccc2c(c1)c(-c1cccc(Cl)c1)cc(=O)n2C` [TIPIFARNIB]: the IC50 in experiment [1] was over 50000 nM.

Take `CC(C)=CCC/C(C)=C/CC/C(C)=C/CO[P@@](=O)(O)OP(=O)(O)O` [FARNESYL DIPHOSPHATE]: binding in experiment [5] was put at a Kd of 2 nM.

Take `CC(C)[C@@H](CO[C@@H](Cc1ccccc1)C(=O)N[C@@H](CCS(C)(=O)=O)C(=O)O)NC[C@@H](N)CS`: the IC50 in experiment [1] was found to be 50 nM; in experiment [2], 1.8 nM.

Consider `CSCC[C@H](NC(=O)c1ccc(NC[C@@H](N)CS)cc1-c1ccccc1)C(=O)O`, for which the IC50 in experiment [1] is 50 nM.

With `Cc1ccccc1S(=O)(=O)N1[C@H](C(C)(C)C)C[C@@H](C(=O)O)[C@@H]1c1ccc(Cl)cc1`, the IC50 in experiment [1] was 466 nM; in experiment [2], over 50000 nM. In the experiment listed under Homo sapiens, the Ratio IC50 was found to be 100.

With `Cc1nc[nH]c1CN1CCN(C(=O)N[C@@H](CC(C)C)C(=O)O)[C@@H](Cc2ccccc2)C1=O` [GGTI-2418], the IC50 stood at 9.5 nM in experiment [1] and 53000 nM in experiment [2]. The Ratio IC50 in the experiment listed under Homo sapiens is over 5000.

Regarding `COc1ccc(S(=O)(=O)N2Cc3cc(-c4ccc(C#N)o4)ccc3N(Cc3cncn3C)C[C@H]2Cc2ccc(OC(=O)NCc3ccccc3)cc2)cc1`, the IC50 is over 99500 nM in experiment [1], 42 nM in experiment [3] and over 9700 nM in experiment [2].

A word on the IC50: it is the point on the concentration scale where inhibition reaches its midpoint. By Kd is commonly meant a measure of binding affinity in units of concentration. Higher therefore signals a looser complex.
